Values quoted from earlier work as cited in US20260216277A1, “TOPICAL COMPOSITIONS AND METHODS FOR TREATING ALOPECIA” (priority 2023, published 2026).

System: radiation-induced alopecia
Conditions: whole brain radiotherapy

CC1(C)CC(O)CC(C)(C)N1[O] [Tempol, 4-hydroxy-2,2,6,6-tetramethylpiperidine-1-oxyl]
Safety and tolerability of topical application to the scalp before radiation: relatively safe and well tolerated
